Laboratory results: patent publication US20230158025A1 (UNIVERSITY OF UTAH RESEARCH FOUNDATION, priority 2020, published 2023)
Where two headings read alike, the source gives them in different places.

Key:
recombinant human GALK1 = recombinant human GALK1 (Homo sapiens, UniProt P51570); assay: hGALK1 biochemical activity assay (Kinase-Glo Plus, ATP depletion)
Procedure, shortened: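 Recombinant human or mouse GALK1 (5 nM, with 100 μM galactose, in the added enzyme solution) was run with ATP (35 μM in the substrate solution) in HEPES pH 8.0 buffer. Compounds were tested at 11 1/3-step concentrations from 57.4 μM to 0.97 nM. After 1 h at room temperature, remaining ATP was read by Kinase-Glo Plus luminescence.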

recombinant mouse GALK1 = recombinant mouse GALK1 (Mus musculus, UniProt Q9R0N0); assay: mGALK1 biochemical activity assay (Kinase-Glo Plus, ATP depletion)
Chain of recombinant mouse GALK1 (Q9R0N0 whole entry): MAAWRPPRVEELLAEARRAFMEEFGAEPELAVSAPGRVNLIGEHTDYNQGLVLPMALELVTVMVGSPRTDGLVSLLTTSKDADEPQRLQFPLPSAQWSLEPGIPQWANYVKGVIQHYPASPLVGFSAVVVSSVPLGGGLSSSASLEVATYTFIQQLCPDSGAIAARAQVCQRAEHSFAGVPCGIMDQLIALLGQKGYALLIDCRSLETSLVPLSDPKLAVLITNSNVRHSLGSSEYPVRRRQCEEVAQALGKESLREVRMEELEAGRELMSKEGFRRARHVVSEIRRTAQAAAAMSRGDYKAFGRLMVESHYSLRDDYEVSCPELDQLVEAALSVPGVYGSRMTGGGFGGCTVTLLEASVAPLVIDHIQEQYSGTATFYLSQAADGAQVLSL
Procedure, shortened: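 Recombinant GALK1 (5 nM) with 100 μM galactose; GALK1 turnover read as ATP depletion by Kinase-Glo Plus luminescence. Reaction ran 1 h at room temperature before detection reagent was added.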

[1] = aqueous kinetic solubility
[2] = rat microsomal stability (RLM)
[3] = recombinant human GALK1, Kinase-Glo Plus ATP depletion, bracketed figure in the cell, e.g. (−1.2), is not defined in the text shown, read-out: hGALK
[4] = recombinant mouse GALK1, Kinase-Glo Plus ATP depletion, bracketed figure in the cell, e.g. (−1.2), is not defined in the text shown, read-out: mGALK
[5] = microsomal stability half-life, minutes
[6] = Tables 2-15, 35 μM ATP, 100 μM galactose, 1 h, bracketed figure after some values (e.g. −1.2) is undefined and not reported, read-out: hGALK IC50
[7] = recombinant human GALK1, Kinase-Glo Plus ATP depletion, read-out: hGALK
[8] = Tables 2-15, 35 μM ATP, 100 μM galactose, 1 h, bracketed figure after some values is undefined and not reported, read-out: mGALK IC50
[9] = recombinant mouse GALK1, Kinase-Glo Plus ATP depletion, read-out: mGALK

Chain of recombinant human GALK1 (P51570 whole entry): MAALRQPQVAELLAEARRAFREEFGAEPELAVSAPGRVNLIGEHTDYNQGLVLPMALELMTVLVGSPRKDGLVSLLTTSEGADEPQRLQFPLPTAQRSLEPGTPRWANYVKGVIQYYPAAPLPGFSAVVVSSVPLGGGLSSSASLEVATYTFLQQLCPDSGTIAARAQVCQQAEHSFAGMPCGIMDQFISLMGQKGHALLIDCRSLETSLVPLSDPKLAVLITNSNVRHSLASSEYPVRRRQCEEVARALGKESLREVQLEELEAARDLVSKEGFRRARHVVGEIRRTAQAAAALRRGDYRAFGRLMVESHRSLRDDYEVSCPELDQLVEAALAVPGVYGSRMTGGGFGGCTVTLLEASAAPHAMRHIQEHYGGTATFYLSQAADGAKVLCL

Row | SMILES | Perm. (1 × 10^−6 cm/sec) (PAMPA permeability; PAMPA) | IC50 (recombinant human GALK1; [3]) [µM] | IC50 (recombinant mouse GALK1; [4]) [µM] | Sol. ([1]; aqueous kinetic solubility) [µg/mL] | Metab. Stabil. (m) [2, 5] [m] | IC50 (recombinant human GALK1; [6]) [µM] | IC50 (recombinant human GALK1; [7]) [µM] | IC50 (recombinant mouse GALK1; [8]) [µM] | IC50 (recombinant mouse GALK1; [9]) [µM] | Metab. Stabil. (m) ([2]; microsomal stability half-life) | Perm. (1 × 10^−6 cm/sec) (PAMPA permeability) | Sol. [1] [µg/mL] | Metab. Stabil. (m) ([2]; microsomal half-life) | hGALK IC50 (recombinant human GALK1; Tables 2-15, 35 μM ATP, 100 μM galactose, 1 h, bracketed figure after some values (e.g. −1.2) is undefined and not reported) | hGALK (μM) (recombinant human GALK1; recombinant human GALK1, Kinase-Glo Plus ATP depletion) | mGALK IC50 (recombinant mouse GALK1; Tables 2-15, 35 μM ATP, 100 μM galactose, 1 h, bracketed figure after some values is undefined and not reported) | mGALK (μM) (recombinant mouse GALK1; recombinant mouse GALK1, Kinase-Glo Plus ATP depletion)
1 | CCOC(=O)N1C(Nc2nc3ccccc3o2)=NC(c2ccccc2Cl)C(C(=O)Nc2cc(C(=O)O)ccn2)=C1C (stereo not drawn) [Compound 274, 2-(2-(benzo[d]oxazol-2-ylamino)-4-(2-chlorophenyl)-1-(ethoxycarbonyl)-6-methyl-1,4-dihydropyrimidine-5-carboxamido)isonicotinic acid] | <1 1 × 10^−6 cm/sec | 9.68 | 19.3 | >85 | >30 | – | – | – | – | – | – | – | – | – | – | – | –
2 | COC(=O)c1csc(NC(=O)C2=C(C)NC(Nc3nc4ccccc4o3)=NC2c2ccccc2Cl)n1 (stereo not drawn) [Compound 186, methyl 2-(2-(benzo[d]oxazol-2-ylamino)-4-(2-chlorophenyl)-6-methyl-1,4-dihydropyrimidine-5-carboxamido)thiazole-4-carboxylate] | 65.6 1 × 10^−6 cm/sec | – | – | <1 | – | 12.2 | 12.2 | 13.7 | 13.7 | >30 | – | – | – | – | – | – | –
3 | CC1=C(C(=O)Nc2cc(B(O)O)ccn2)C(c2ccc(C)cc2Cl)N=C(Nc2nc3ccc(F)cc3o2)N1 (stereo not drawn) [Compound 92, (2-(4-(2-chloro-4-methylphenyl)-2-((6-fluorobenzo[d]oxazol-2-yl)amino)-6-methyl-1,4-dihydropyrimidine-5-carboxamido)pyridin-4-yl)boronic acid] | – | – | – | – | – | 1.93 | 1.93 | 10.9 | 10.9 | – | <3.2 1 × 10^−6 cm/sec | <1 | 14.13 | – | – | – | –
4 | CC1=C(C(=O)N2CCOCC2)C(c2ccccc2Cl)N=C(Nc2nc3ccccc3o2)N1 (stereo not drawn) [Compound 145, (2-(benzo[d]oxazol-2-ylamino)-4-(2-chlorophenyl)-6-methyl-1,4-dihydropyrimidin-5-yl)(morpholino)methanone] | 1046.7 1 × 10^−6 cm/sec | – | – | 15.3 | – | – | 24.3 | – | 24.3 | 2.1 | – | – | – | – | – | – | –
5 | CC1=C(C(=O)Nc2nncs2)C(c2n[nH]cc2Cl)N=C(Nc2nc3ccccc3o2)N1 (stereo not drawn) [Compound 254, 2-(benzo[d]oxazol-2-ylamino)-4-(4-chloro-1H-pyrazol-3-yl)-6-methyl-N-(1,3,4-thiadiazol-2-yl)-1,4-dihydropyrimidine-5-carboxamide] | 37.0 1 × 10^−6 cm/sec | 17.2 | 54.4 | 34.6 | >30 | – | – | – | – | – | – | – | – | – | – | – | –
6 | CC1=C(C(=O)Nc2cccc(Cl)c2)C(c2ccccc2Cl)N=C(Nc2nc3ccccc3o2)N1 (stereo not drawn) [Compound 154, 2-(benzo[d]oxazol-2-ylamino)-N-(3-chlorophenyl)-4-(2-chlorophenyl)-6-methyl-1,4-dihydropyrimidine-5-carboxamide] | <9.2 1 × 10^−6 cm/sec | – | – | <1 | – | – | – | – | – | >30 | – | – | – | inactive | in- active | inactive | in- active
7 | CC1=C(C(=O)Nc2cc(C(=O)O)ccn2)[C@H](c2ccccc2Cl)N=C(Nc2nc3ccccc3o2)N1 [Compound 208, (R)-2-(2-(benzo[d]oxazol-2-ylamino)-4-(2-chlorophenyl)-6-methyl-1,4-dihydropyrimidine-5-carboxamido)isonicotinic acid] | <1 1 × 10^−6 cm/sec | – | – | >74 | – | 0.54 | 0.54 | 3.43 | 3.43 | >30 | – | – | – | – | – | – | –
8 | O=C(Nc1nncs1)C1=C(c2cnccn2)NC(Nc2nc3ccccc3o2)=NC1c1ccccc1Cl (stereo not drawn) [Compound 249, 2-(benzo[d]oxazol-2-ylamino)-4-(2-chlorophenyl)-6-(pyrazin-2-yl)-N-(1,3,4-thiadiazol-2-yl)-1,4-dihydropyrimidine-5-carboxamide] | 60.3 1 × 10^−6 cm/sec | 3.85 | 21.7 | 2.1 | >30 | – | – | – | – | – | – | – | – | – | – | – | –
9 | CC1=C(C(=O)Nc2ccc(-n3cccn3)cc2)C(c2ccccc2Cl)N=C(Nc2nc3ccccc3o2)N1 (stereo not drawn) [Compound 184, N-(4-(1H-pyrazol-1-yl)phenyl)-2-(benzo[d]oxazol-2-ylamino)-4-(2-chlorophenyl)-6-methyl-1,4-dihydropyrimidine-5-carboxamide] | <11.8 1 × 10^−6 cm/sec | – | – | <1 | – | 6.11 | 6.11 | 12.2 | 12.2 | 16.4271 | – | – | – | – | – | – | –
10 | CC1=C(C(=O)Nc2ccccc2O)C(c2ccccc2Cl)N=C(Nc2nc3ccccc3o2)N1 (stereo not drawn) [Compound 161, 2-(benzo[d]oxazol-2-ylamino)-N-(2-hydroxyphenyl)-4-(2-chlorophenyl)-6-methyl-1,4-dihydropyrimidine-5-carboxamide] | 21.1 1 × 10^−6 cm/sec | – | – | <1 | – | 6.85 | – | 17.2 | 17.2 | 17.94 | – | – | – | – | – | – | –
11 | CC1=C(C(=O)NCCN(C)C)C(c2ccccc2Cl)N=C(Nc2nc3ccccc3o2)N1 (stereo not drawn) [Compound 237] | >1227 1 × 10^−6 cm/sec | – | – | >67 | – | 19.3 | 19.3 | 15.3 | 15.3 | >30 | – | – | – | – | – | – | –
12 | CC1=C(C(=O)NCc2cnn(C)c2)C(c2ccccc2Cl)N=C(Nc2nc3cccc(N)c3o2)N1 (stereo not drawn) [Compound 82, 2-((7-aminobenzo[d]oxazol-2-yl)amino)-4-(2-chlorophenyl)-6-methyl-N-((1-methyl-1H-pyrazol-4-yl)methyl)-1,4-dihydropyrimidine-5-carboxamide] | – | – | – | – | – | – | 0.39 | – | 3.43 | – | 101.9 1 × 10^−6 cm/sec | >72 | >30 | – | – | – | –
13 | CC1=C(C(=O)Nc2cc(C(=O)O)ccn2)C(c2ccc(-n3ccnc3)cc2Cl)N=C(Nc2nc3ccc(F)cc3o2)N1 (stereo not drawn) [Compound 74, 2-(4-(2-chloro-4-(1H-imidazol-1-yl)phenyl)-2-((6-fluorobenzo[d]oxazol-2-yl)amino)-6-methyl-1,4-dihydropyrimidine-5-carboxaido)isonicotinic acid] | – | – | – | – | – | – | 0.12 | – | 0.97 | – | <1 1 × 10^−6 cm/sec | >87 | >30 | – | – | – | –
